PMC10461232, “Structure-Based Design of Transport-Specific Multitargeted One-Carbon Metabolism Inhibitors in Cytosol and Mitochondria” (Journal of Medicinal Chemistry, 2023)
Read-outs that look alike come from different tables or passages of the source.

Legend:
[1] = system: R2 (MTXRIIOuaR2-4) CHO cells; assay: Growth inhibition, transporter-null R2 CHO cells; format: cell-based, Chinese hamster; details: Cricetulus griseus, 96 h, read-out: IC50 R2
PC43-10 (RFC) CHO cells = assay: Growth inhibition, PC43-10 CHO cells expressing human RFC; format: cell-based, Chinese hamster; details: Cricetulus griseus, 96 h, read-out: IC50 PC43-10 (RFC)
[2] = system: R2/PCFT4 (PCFT) CHO cells; assay: Growth inhibition, R2/PCFT4 CHO cells expressing human PCFT; format: cell-based, Chinese hamster; details: Cricetulus griseus, 96 h, read-out: IC50 R2/PCFT4 (PCFT)
RT16 (FRα) CHO cells = assay: Growth inhibition, RT16 CHO cells expressing human FRα; format: cell-based, Chinese hamster; details: 96 h, 96 h, mean (SE)
D4 (FRβ) CHO cells = assay: Growth inhibition, D4 CHO cells expressing human FRβ; format: cell-based, Chinese hamster; details: for IC50: Cricetulus griseus, CHO, 96 h, mean (SE); for difference between D4 (FRβ) and RT16 (FRα) IC50: RT16 versus D4 CHO cells
KB (RFC/PCFT/FRα) cells = assay: Growth inhibition, KB nasopharyngeal carcinoma cells; format: cell-based, human; details: Homo sapiens, KB, folate-free RPMI 1640, 2 nM leucovorin, mean (SE)
Procedure: The CHO cells were cultured in α-minimal essential medium (MEM) supplemented with 10% bovine calf serum (Fisher Scientific), penicillin (1000 U/mL)/streptomycin (1000 μg/mL), and 2 mM L-glutamine at 37 °C with 5% CO2. All of the R2 transfected cells (PC43-10, RT16, R2/PCFT4) were cultured in complete α-MEM media plus 1 mg/mL G418. Prior to the cytotoxicity assays (see below), RT16 and D4 cells were cultured for 3 days in complete folate-free RPMI 1640 (without added folate), and R2/PCFT4 and R2 cells were cultured in complete folate-free RPMI 1640 supplemented with dialyzed fetal bovine serum (Fisher Scientific) and 25 nM leucovorin plus 1 mg/mL G418. KB cells were routinely cultured in folate-free RPMI 1640 medium, supplemented with 10% fetal bovine serum (Fisher Scientific), penicillin-streptomycin solution, and 2 mM L-glutamine at 37 °C with 5% CO2.
For growth inhibition studies, cells (CHO, KB) were plated in 96-well dishes (∼2500–5000 cells/well, total volume of 200 μL medium) over a range of antifolate concentrations.[69],[77] The medium was folate-free RPMI 1640 with 10% dialyzed serum and antibiotics supplemented with 25 nM leucovorin for experiments with R2, PC43-10, and R2/PCFT4 cells. For experiments with RT16, D4, and KB cells, cells were cultured in folate-free RPMI medium with 10% dialyzed fetal bovine serum and antibiotics; the medium was supplemented with 2 nM leucovorin. […] Incubations were routinely for up to 96 h. Viable cells (reflecting cell viability) were assayed with Cell Titer Blue reagent (Promega, Madison, WI), with fluorescence measured (590 nm emission, 560 nm excitation) with a fluorescence plate reader.

HPAC (RFC/PCFT) cells = assay: Proliferation inhibition, HPAC pancreatic adenocarcinoma cells; format: cell-based, human; details: for IC50: HPAC cells, folate- and glycine-free RPMI, 25 nM leucovorin, mean (SE)
Description: (§1) The RFC-, PCFT-, and FR-null MTXRIIOua^R2–4 (R2), and RFC- (PC43-10), PCFT- (R2/PCFT4), FRα- (RT16), and FRβ- (D4) expressing CHO sublines were previously described.[62]−[64],[76] HPAC pancreatic cancer cells were generously provided by Dr. Yubin Ge (Karmanos Cancer Institute, Detroit, MI). Human pancreatic normal epithelial (HPNE) cells[67] were a gift from M. Oulette (University of Nebraska Medical Center, Omaha, NE). KB human nasopharyngeal carcinoma cells were purchased from the American Type Culture Collection (Manassas, VA). All human cell lines were validated by STR analysis by Genetica DNA Laboratories (Burlington, NC). Cell lines were tested for Mycoplasma by PCR using a Mycloplasma testing kit (Venor GeM Mycoplasma Detection Kit, Sigma). Frozen stocks were generated from authenticated Mycoplasma-free cultures.

HPNE (RFC) cells = assay: Proliferation inhibition, HPNE normal pancreatic epithelial cells; format: cell-based; details: Homo sapiens, folate- and glycine-free RPMI, 25 nM leucovorin
Description: as §1

[3] = transporter-null CHO cells, 25 nM leucovorin, mean (SE)
[4] = CHO cells expressing human RFC, 25 nM leucovorin, mean (SE)
[5] = CHO cells expressing human PCFT, 25 nM leucovorin, mean (SE)
[6] = Cricetulus griseus, CHO cells expressing human FRα, 2 nM leucovorin, read-out: IC50 RT16 (FRα)
[7] = CHO cells expressing human FRβ, 2 nM leucovorin, read-out: IC50 D4 (FRβ)
[8] = Cricetulus griseus, read-out: IC50 RT16 (FRα), CHO cells expressing human FRα, 96 h, 2 nM leucovorin
[9] = read-out: IC50 D4 (FRβ), CHO cells expressing human FRβ, 96 h, 2 nM leucovorin

Structure (SMILES) | IC50 (KB (RFC/PCFT/FRα) cells) | IC50 (HPAC (RFC/PCFT) cells; Homo sapiens, HPAC) | IC50 HPAC (RFC/PCFT) (HPAC (RFC/PCFT) cells) | IC50 [1, 3] | IC50 (PC43-10 (RFC) CHO cells; [4]) | IC50 [2, 5] | IC50 (RT16 (FRα) CHO cells; [6]) | IC50 (D4 (FRβ) CHO cells; [7]) | difference between D4 (FRβ) and RT16 (FRα) IC50 (D4 (FRβ) CHO cells) | IC50 (HPNE (RFC) cells) | IC50 (RT16 (FRα) CHO cells; CHO cells expressing human FRα, 2 nM leucovorin, read-out: IC50 RT16 (FRα)) | IC50 ([1]; CHO) | IC50 (PC43-10 (RFC) CHO cells) | IC50 [2] | IC50 (RT16 (FRα) CHO cells; [8]) | IC50 (D4 (FRβ) CHO cells; [9]) | IC50 (HPAC (RFC/PCFT) cells)
Nc1nc2ccn(CCCCCc3ccc(C(=O)N[C@@H](CCC(=O)O)C(=O)O)s3)c2c(=O)[nH]1 [Compound 3] | 7.47 nM | 746 nM |  |  |  |  |  |  |  | > 5000 nM |  | > 1000 nM | > 1000 nM | > 1000 nM | 14.6 nM | 7.89 nM | 746 nM
Nc1nc2ccn(CCCCCc3ccc(C(=O)N[C@@H](CCC(=O)O)C(=O)O)c(F)c3)c2c(=O)[nH]1 [Compound 11, (4-(5-(2-Amino-4-oxo-3,4-dihydro-5H-pyrrolo[3,2-d]pyrimidin-5-yl)pentyl)-2-fluorobenzoyl)-L-glutamic Acid] | 6.25 nM | 1230 nM |  |  |  |  |  |  |  | > 5000 nM |  | > 1000 nM | > 1000 nM | > 1000 nM | 26.8 nM | 6.95 nM | 
Nc1nc2ccn(CCOc3ccc(C(=O)N[C@@H](CCC(=O)O)C(=O)O)cc3)c2c(=O)[nH]1 [Compound 6, (4-(3-(2-Amino-4-oxo-3,4-dihydro-5H-pyrrolo[3,2-d]pyrimidin-5-yl)ethoxy)benzoyl)-L-glutamic Acid] | 11.2 nM | 4620 nM |  | > 1000 nM | > 1000 nM | 431 nM | 67.7 nM | 1.62 nM | 20- to 40 fold | > 5000 nM |  |  |  |  |  |  | 
Nc1nc2ccn(CCCNc3ccc(C(=O)N[C@@H](CCC(=O)O)C(=O)O)cc3)c2c(=O)[nH]1 [Compound 8, (4-((3-(2-Amino-4-oxo-3,4-dihydro-5H-pyrrolo[3,2-d]pyrimidin-5-yl)propyl)amino)benzoyl)-L-glutamic Acid] | 6.17 nM | > 5000 nM |  | > 1000 nM | > 1000 nM | > 1000 nM | 6.88 nM |  |  | > 5000 nM |  |  |  |  |  |  | 
Nc1nc2ccn(CCCOc3ccc(C(=O)N[C@@H](CCC(=O)O)C(=O)O)cc3)c2c(=O)[nH]1 [Compound 5, (4-(3-(2-Amino-4-oxo-3,4-dihydro-5H-pyrrolo[3,2-d]pyrimidin-5-yl)propoxy)benzoyl)-L-glutamic Acid] | 8.23 nM | 1200 to 1600 nM |  | > 1000 nM | > 1000 nM | > 1000 nM | 18.7 nM | 0.45 nM | 20- to 40 fold | > 5000 nM |  |  |  |  |  |  | 1670 nM

Now from value to molecule, other results behind:

IC50 (KB (RFC/PCFT/FRα) cells) | IC50 (HPAC (RFC/PCFT) cells; Homo sapiens, HPAC) | IC50 HPAC (RFC/PCFT) (HPAC (RFC/PCFT) cells) | Structure (SMILES) | IC50 [1, 3] | IC50 (PC43-10 (RFC) CHO cells; [4]) | IC50 [2, 5] | IC50 (RT16 (FRα) CHO cells; [6]) | IC50 (D4 (FRβ) CHO cells; [7]) | difference between D4 (FRβ) and RT16 (FRα) IC50 (D4 (FRβ) CHO cells) | IC50 (HPNE (RFC) cells) | IC50 (RT16 (FRα) CHO cells; CHO cells expressing human FRα, 2 nM leucovorin, read-out: IC50 RT16 (FRα)) | IC50 ([1]; CHO) | IC50 (PC43-10 (RFC) CHO cells) | IC50 [2] | IC50 (RT16 (FRα) CHO cells; [8]) | IC50 (D4 (FRβ) CHO cells; [9]) | IC50 (HPAC (RFC/PCFT) cells)
23.7 nM | 2990 nM |  | Nc1nc2ccn(CCCc3ccc(C(=O)N[C@@H](CCC(=O)O)C(=O)O)s3)c2c(=O)[nH]1 [Compound 4] | > 1000 nM | > 1000 nM | 497 nM | 33 nM | 1.94 nM | 20- to 40 fold | > 5000 nM |  |  |  |  |  |  | 
6.81 nM | 2590 nM |  | Nc1nc2ccn(CCCCc3ccc(C(=O)N[C@@H](CCC(=O)O)C(=O)O)cc3)c2c(=O)[nH]1 [Compound 15] | > 1000 nM | > 1000 nM | > 1000 nM | < 3 nM |  |  | > 5000 nM | 1.64 nM |  |  |  |  |  | 
8.34 nM | 166 nM | 2600 to 4600 nM | Nc1nc2ccn(CCCc3ccc(C(=O)N[C@@H](CCC(=O)O)C(=O)O)c(F)c3)c2c(=O)[nH]1 [Compound 13, (4-(3-(2-Amino-4-oxo-3,4-dihydro-5H-pyrrolo[3,2-d]pyrimidin-5-yl)propyl)-2-fluorobenzoyl)-L-glutamic Acid] | > 1000 nM | 233 nM | 98 nM | 16.3 nM | 0.63 nM | 20- to 40 fold | > 5000 nM |  |  |  |  |  |  | 
9.26 nM | > 5000 nM |  | Nc1nc2ccn(CCCCc3cc(F)c(C(=O)N[C@@H](CCC(=O)O)C(=O)O)c(F)c3)c2c(=O)[nH]1 [Compound 12, (4-(4-(2-Amino-4-oxo-3,4-dihydro-5H-pyrrolo[3,2-d]pyrimidin-5-yl)butyl)-2,6-difluorobenzoyl)-L-glutamic Acid] | > 1000 nM | > 1000 nM | > 1000 nM | 2.55 nM | 7.5 nM |  | > 5000 nM |  |  |  |  |  |  | 
6.3 nM | 1620 nM |  | Nc1nc2ccn(CCCCCc3ccc(C(=O)N[C@@H](CCC(=O)O)C(=O)O)cc3)c2c(=O)[nH]1 [Compound 9] | > 1000 nM | > 1000 nM | > 1000 nM | 13.5 nM | 6.33 nM |  | > 5000 nM |  |  |  |  |  |  | 
